# From EP3262036B1, “THERAPEUTIC PYRIDAZINE COMPOUNDS AND USES THEREOF” (priority 2015, dated 2016)
# Target: BRG1 (Homo sapiens, UniProt P51532)
# Experiment: biochemical
# Assay type: binding
# Settings: BRG1 HTRF IC50 (µM)
# Description: IC50 measurements for inhibitors using BRG1 TR-FRET Binding Assay
# Chain of BRG1 (P51532 1448-1575): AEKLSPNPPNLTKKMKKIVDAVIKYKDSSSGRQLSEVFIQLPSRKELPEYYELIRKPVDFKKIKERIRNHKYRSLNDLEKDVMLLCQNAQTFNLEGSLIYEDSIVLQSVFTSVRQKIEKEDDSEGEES
row,SMILES,IC50 [µM]
1,"Nc1nnc(-c2ccccc2O)cc1N1CCN(S(=O)(=O)c2ccccc2)CC1 [Example 11, 2-(6-amino-5-(4-(phenylsulfonyl)piperazin-1-yl)pyridazin-3-yl)phenol]",0.0612
2,"Nc1nnc(-c2ccccc2O)cc1N1CCN(Cc2ccccc2)CC1 [Example 12, 2-(6-amino-5-(4-benzylpiperazin-1-yl)pyridazin-3-yl)phenol]",0.0612
3,"Nc1nnc(-c2ccccc2O)cc1N1CCN(Cc2ccccc2)C(=O)C1 [Example 14, 4-(3-amino-6-(2-hydroxyphenyl)pyridazin-4-yl)-1-benzylpiperazin-2-one]",0.0735
4,"Nc1nnc(-c2ccccc2O)cc1N1C[C@@H]2C[C@H]1CN2Cc1ccccc1 [Example 17, 2-(6-amino-5-((1S,4S)-5-benzyl-2,5-diazabicyclo[2.2.1]heptan-2-yl)pyridazin-3-yl)phenol]",0.147
5,"CN(CCc1ccccc1)c1cc(-c2ccccc2O)nnc1N [Example 36, 2-(6-amino-5-(methyl(phenethyl)amino)pyridazin-3-yl)phenol]",0.0962
6,"CC1CN(c2cc(-c3ccccc3O)nnc2N)CC(C)N1Cc1ccccc1 (stereo not shown) [Example 37, 2-(6-amino-5-(4-benzyl-3,5-dimethylpiperazin-1 - yl)pyridazin-3-yl)phenol]",0.102
7,"Nc1nnc(-c2ccccc2O)cc1N1CCC(O)(Cc2ccccc2)C1 (stereo not shown) [Example 39, 1-(3-amino-6-(2-hydroxyphenyl)pyridazin-4-yl)-3-benzylpyrrolidin-3-ol]",0.113
8,"COC1(Cc2ccccc2)CCN(c2cc(-c3ccccc3O)nnc2N)C1 (stereo not shown) [Example 40, 2-(6-amino-5-(3-benzyl-3-methoxypyrrolidin-1-yl)pyridazin-3-yl)phenol]",0.0794
9,"Nc1nnc(-c2ccccc2O)cc1N1CC2CC1CN2c1ccccn1 (stereo not shown) [Example 41, 2-(6-amino-5-(5-(pyridin-2-yl)-2,5-diazabicyclo[2.2.1]heptan-2-yl)pyridazin-3-yl)phenol]",0.0282
10,"Nc1nnc(-c2ccccc2O)cc1N1CCC(O)(c2ccccc2)CC1 [Example 42, 1-(3-amino-6-(2-hydroxyphenyl)pyridazin-4-yl)-4-phenylpiperidin-4-ol]",0.0113
11,"Nc1nnc(-c2ccccc2O)cc1N1CC2CCC(C1)N2c1cncnc1 [Example 43, 2-(6-amino-5-(8-(pyrimidin-5-yl)-3,8-diazabicyclo[3.2.1]octan-3-yl)pyridazin-3-yl)phenol]",0.0193
12,"Cn1cc(N2C3CCC2CN(c2cc(-c4ccccc4O)nnc2N)C3)cn1 [Example 48, 2-(6-amino-5-(8-(1-methyl-1H-pyrazol-4-yl)-3,8-diazabicyclo[3.2.1]octan-3-yl)pyridazin-3-yl)phenol]",0.0309
13,"Nc1nnc(-c2ccccc2O)cc1N1CC2CCC(C1)N2c1cnccn1 [Example 50, 2-(6-amino-5-(8-(pyrazin-2-yl)-3,8-diazabicyclo[3.2.1]octan-3-yl)pyridazin-3-yl)phenol]",0.0106
14,"Nc1nnc(-c2ccccc2O)cc1N1CCCC(O)(c2ccccc2)C1 (stereo not shown) [Example 59, 1-(3-amino-6-(2-hydroxyphenyl)pyridazin-4-yl)-3-phenylpiperidin-3-ol]",0.0158
15,"Nc1nnc(-c2ccccc2O)cc1N1CCN(C(=O)c2ccccc2)CC1 [Example 61, (4-(3-amino-6-(2-hydroxyphenyl)pyridazin-4-yl)piperazin-1-yl)(phenyl)methanone]",0.0348
16,"Nc1nnc(-c2ccccc2O)cc1N1CCN(c2ccccc2)C(=O)C1 [Example 64, 4-(3-amino-6-(2-hydroxyphenyl)pyridazin-4-yl)-1-phenylpiperazin-2-one]",0.208
17,"CC(=O)N1C2CCC1CN(c1cc(-c3ccccc3O)nnc1N)C2 [Example 66, 1-(3-(3-amino-6-(2-hydroxyphenyl)pyridazin-4-yl)-3,8-diazabicyclo[3.2.1]octan-8-yl)ethan-1-one]",0.0713
18,"CS(=O)(=O)N1C2CCC1CN(c1cc(-c3ccccc3O)nnc1N)C2 [Example 67, 2-(6-amino-5-(8-(methylsulfonyl)-3,8-diazabicyclo[3.2.1]octan-3-yl)pyridazin-3-yl)phenol]",0.0294
19,"Nc1nnc(-c2ccccc2O)cc1N1C[C@H]2C[C@@H]1CN2c1ccccn1 [Example 74, 2-(6-amino-5-((1R,4R)-5-(pyridin-2-yl)-2,5-diazabicyclo[2.2.1]heptan-2-yl)pyridazin-3-yl)phenol]",0.0106

# More lines, now with the values ahead:
row,IC50 [µM],SMILES
1,0.296,"CN1CCCN(c2cc(-c3ccccc3O)nnc2N)CC1 [Example 2, 2-(6-amino-5-(4-methyl-1,4-diazepan-1-yl)pyridazin-3-yl)phenol]"
2,0.0321,"Nc1nnc(-c2ccccc2O)cc1N1CCN(c2ccccc2)CC1 [Example 13, 2-(6-amino-5-(4-phenylpiperazin-1-yl)pyridazin-3-yl)phenol]"
3,0.0967,"Nc1nnc(-c2ccccc2O)cc1N1CCC(c2ccccc2)CC1 [Example 18, 2-(6-amino-5-(4-phenylpiperidin-1-yl)pyridazin-3-yl)phenol]"
4,0.0564,"CN(C)C(=O)C1CCN(c2cc(-c3ccccc3O)nnc2N)CC1 [Example 19, 1-(3-amino-6-(2-hydroxyphenyl)pyridazin-4-yl)-N,N-dimethylpiperidine-4-carboxamide]"
5,0.0358,"CC(C)(O)C1CCN(c2cc(-c3ccccc3O)nnc2N)CC1 [Example 20, 2-(6-amino-5-(4-(2-hydroxypropan-2-yl)piperidin-1-yl)pyridazin-3-yl)phenol]"
6,0.116,"CN(C)CC1CCCN(c2cc(-c3ccccc3O)nnc2N)C1 (stereo not shown) [Example 21, 2-(6-amino-5-(3-((dimethylamino)methyl)piperidin-1-yl)pyridazin-3-yl)phenol]"
7,0.0421,"CC1CN(c2cc(-c3ccccc3O)nnc2N)CCN1Cc1ccccc1 (stereo not shown) [Example 22, 2-(6-amino-5-(4-benzyl-3-methylpiperazin-1-yl)pyridazin-3-yl)phenol]"
8,0.172,"Nc1nnc(-c2ccccc2O)cc1N1CCNC(C(F)(F)F)C1 (stereo not shown) [Example 23, 2-(6-amino-5-(3-(trifluoromethyl)piperazin-1-yl)pyridazin-3-yl)phenol]"
9,0.0746,"CNC(=O)CN1CCN(c2cc(-c3ccccc3O)nnc2N)CC1 [Example 24, 2-(4-(3-amino-6-(2-hydroxyphenyl)pyridazin-4-yl)piperazin-1-yl)-N-methylacetamide]"
10,0.0176,"CN1CCOC2(CCN(c3cc(-c4ccccc4O)nnc3N)CC2)C1 [Example 25, 2-(6-amino-5-(4-methyl-1-oxa-4,9-diazaspiro[5.5]undecan-9-yl)pyridazin-3-yl)phenol]"
11,0.0978,"CS(=O)(=O)CCN1CCN(c2cc(-c3ccccc3O)nnc2N)CC1 [Example 26, 2-(6-amino-5-(4-(2-(methylsulfonyl)ethyl)piperazin-1-yl)pyridazin-3-yl)phenol]"
12,0.0755,"Nc1nnc(-c2ccccc2O)cc1N1CCN(CC(F)(F)F)CC1 [Example 27, 2-(6-amino-5-(4-(2,2,2-trifluoroethyl)piperazin-1-yl)pyridazin-3-yl)phenol]"
13,0.0566,"Nc1nnc(-c2ccccc2O)cc1N1CCC2(CC1)CNC(=O)C2 [Example 29, 8-(3-amino-6-(2-hydroxyphenyl)pyridazin-4-yl)-2,8-diazaspiro[4.5]decan-3-one]"
14,0.0208,"CN(C)CC1(O)CCN(c2cc(-c3ccccc3O)nnc2N)CC1 [Example 31, 1-(3-amino-6-(2-hydroxyphenyl)pyridazin-4-yl)-4-((dimethylamino)methyl) piperidin-4-ol]"
15,0.0921,"Nc1nnc(-c2ccccc2O)cc1N1CCC(O)C1 (stereo not shown) [Example 38, 1-(3-amino-6-(2-hydroxyphenyl)pyridazin-4-yl)pyrrolidin-3-ol]"
16,0.0253,"CC1CN(c2cc(-c3ccccc3O)nnc2N)CCC1(O)c1ccccc1 (stereo not shown) [Example 44, 1-(3-amino-6-(2-hydroxyphenyl)pyridazin-4-yl)-3-methyl-4-phenylpiperidin-4-ol]"
17,0.414,"Nc1nnc(-c2ccccc2O)cc1N1CCS(=O)(=O)CC1 [Example 46, 4-(3-amino-6-(2-hydroxyphenyl)pyridazin-4-yl)thiomorpholine 1,1-dioxide]"
18,0.0848,"Nc1nnc(-c2ccccc2O)cc1N1CCNC(Cc2ccccc2)C1 (stereo not shown) [Example 49, 2-(6-amino-5-(3-benzylpiperazin-1-yl)pyridazin-3-yl)phenol]"
19,0.128,"Nc1nnc(-c2ccccc2O)cc1N1CCc2[nH]ncc2C1 [Example 52, 2-(6-amino-5-(1,4,6,7-tetrahydro-5H-pyrazolo[4,3-c]pyridin-5-yl)pyridazin-3-yl)phenol]"
20,0.316,"Nc1nnc(-c2ccccc2O)cc1N1CCNC(=O)C1 [Example 53, 4-(3-amino-6-(2-hydroxyphenyl)pyridazin-4-yl)piperazin-2-one]"
21,0.123,"Nc1nnc(-c2ccccc2O)cc1N1CCC(c2ccccc2)C1 (stereo not shown) [Example 55, 2-(6-amino-5-(3-phenylpyrrolidin-1-yl)pyridazin-3-yl)phenol]"
22,0.0252,"Nc1nnc(-c2ccccc2O)cc1N1CC(OCc2ccccc2)C1 [Example 58, 2-(6-amino-5-(3-(benzyloxy)azetidin-1-yl)pyridazin-3-yl)phenol]"
23,0.0247,"C[C@@H](C1CCN(c2cc(-c3ccccc3O)nnc2N)CC1)N(C)C [Example 60, (S)-2-(6-amino-5-(4-(1-(dimethylamino)ethyl)piperidin-1-yl)pyridazin-3-yl)phenol]"
24,0.0117,"CC1CN(c2cc(-c3ccccc3O)nnc2N)CCN1C(=O)c1ccccc1 (stereo not shown) [Example 62, (4-(3-amino-6-(2-hydroxyphenyl)pyridazin-4-yl)-2-methylpiperazin-1-yl)(phenyl)methanone]"
25,0.0276,"C[C@H](C1CCN(c2cc(-c3ccccc3O)nnc2N)CC1)N(C)C [Example 65, (R)-2-(6-amino-5-(4-(1-(dimethylamino)ethyl)piperidin-1-yl)pyridazin-3-yl)phenol]"
26,0.0367,"Cn1cc(N2CCN(c3cc(-c4ccccc4O)nnc3N)CC2)cn1 [Example 68, 2-(6-amino-5-(4-(1-methyl-1H-pyrazol-4-yl)piperazin-1-yl)pyridazin-3-yl)phenol]"
27,0.0824,"NC(=O)C1CCN(c2cc(-c3ccccc3O)nnc2N)CC1 [Example 73, 1-(3-amino-6-(2-hydroxyphenyl)pyridazin-4-yl)piperidine-4-carboxamide]"
